This is an account of results in patent publication US20230044787A1, “TRICYCLE DIHYDROIMIDAZOPYRIMIDONE DERIVATIVE, PREPARATION METHOD THEREOF, PHARMACEUTICAL COMPOSITION AND USE THEREOF” (priority 2019, published 2023).

In the first assay the target is T1, Lp-PLA2 (Homo sapiens, UniProt Q13093).
T1 construct: aliquoted and thawed 40 μL of pooled human plasma was previously added; from tissue; host or cells: pooled human plasma
T1 sequence (Q13093 22-441): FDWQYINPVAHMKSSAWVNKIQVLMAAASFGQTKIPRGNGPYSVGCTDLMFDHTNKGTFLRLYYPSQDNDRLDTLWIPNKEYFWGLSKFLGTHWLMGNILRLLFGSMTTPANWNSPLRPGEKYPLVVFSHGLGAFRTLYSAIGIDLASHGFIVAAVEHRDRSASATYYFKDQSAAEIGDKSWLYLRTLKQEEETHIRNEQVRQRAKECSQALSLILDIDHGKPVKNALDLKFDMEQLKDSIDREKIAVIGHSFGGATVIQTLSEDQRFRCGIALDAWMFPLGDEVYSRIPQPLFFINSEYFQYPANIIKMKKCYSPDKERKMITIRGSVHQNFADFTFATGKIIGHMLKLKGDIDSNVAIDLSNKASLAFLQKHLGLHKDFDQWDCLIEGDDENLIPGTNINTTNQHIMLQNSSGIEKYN
The assay is described as follows: Lipoprotein-associated phospholipase A2 (Lp-PLA2) human plasma assay (Thio-PAF assay). Type of assay: biochemical. The note with it: Comparison of activity data (I); pooled human plasma, 2-thio-PAF substrate, 30-min pre-incubation. How it is done:
Lipoprotein-Associated Phospholipase A2 (Lp-PLA2) Human Plasma Assay
The amount of sulfhydryl groups is continuously determined by the reaction with CPM (7-diethylamino-3-(4′-maleimidophenyl)-4-methylcoumarin), and the CPM is a maleimide of which fluorescence increases after Michael addition of sulfhydryl group. This assay can detect Lp-PLA2 activity in human plasma, as determined by specific inhibition of Lp-PLA2 inhibitors.
Thio-PAF assay was performed as quenched 75 μL assay. Compound source plate was prepared for each compound by preparing 1:3 (by volume) serial dilutions in pure DMSO in a 96-well microplate. The compound on the source plate was diluted 20-fold by transferring 3 μL of the compound from the compound source plate into a 96-well microplate pre-added with 57 μL of assay buffer by Rainin multichannel pipette. The assay buffer described above consisted of 50 mM HEPES, pH 7.4, 150 mM NaCl, 1 mM CHAPS. 1 μL of the 20-fold diluted compound was transferred by Rainin multichannel pipette into a 96-well Greiner 655076 (black) microplate to which aliquoted and thawed 40 μL of pooled human plasma was previously added. The plate was shaken for 20 seconds on a microplate shaker to mix well. After a 30-min pre-incubation at room temperature, 10 μL of substrate solution was added to the 96-well Greiner 655076 (black) microplate by Rainin multichannel pipette, in which the substrate solution contained 2.5 mM 2-thio-PAF [from ethanol stock], 32 μM CPM [from DMSO stock], and 3.2 mM NEM (N-ethylmaleimide) [freshly prepared in DMSO per experiment] in assay buffer consisting of 50 mM HEPES, pH 7.4; 150 mM NaCl; 1 mM CHAPS. After 2 min, the reaction was quenched with […] of 5% trifluoroacetic acid (TFA) in water. The plate was centrifuged at 2000 rpm for 1 minute. The plate was read at ex:380/em:485 using a Biotek Synergy H1 (H1MF) microplate reader. IC50 data, curves and QC analysis were performed using GraphPad Prism 6.0 and Excel.
What is called IC50 is the point on the concentration scale where inhibition reaches its midpoint. For `O=c1nc(OCc2cc(F)c(F)c(F)c2)cc2n1CC13CCC(CC1)N23` [Example 52, 3-((3,4,5-trifluorobenzyl)oxy)-7,8-dihydro-1H,6H,9H-6,8a-ethanopyrrolo[1′,2′:3,4] imidazo[1,2-c]pyrimidin-1-one], the IC50 stood at 16 nM.

Staying with this assay, now noted: Lp-PLA2 human plasma assay (Thio-PAF), pooled human plasma, 30-min pre-incubation at room temperature.
As for `O=c1nc(OCc2ccc(Oc3ccc(C(F)(F)F)cc3)c(F)c2)cc2n1CC13CCC(CC1)N23` [Example 130, 3-((3-fluoro-4-(4-(trifluoromethyl)phenoxy)benzyl)oxy)-7,8-dihydro-1H,6H,9H-6,8a-ethanopyrrolo[1′,2′:3,4] imidazo[1,2-c]pyrimidin-1-one], the IC50 was determined as 4.8 nM.

In the case of `N#Cc1cc(COc2cc3n(c(=O)n2)C[C@]24CO[C@H](CN32)C4)ccc1Oc1ccc(Cl)c(F)c1` [Example 20], the IC50 was 6.8 nM.

`O=c1nc(OCc2cc(F)c(Oc3ccnc(C(F)F)c3)c(F)c2)cc2n1CC13CC(CN21)C3` [Example 176, 3-((4-((2-(difluoromethyl)pyridin-4-yl)oxy)-3,5-difluorobenzyl)oxy)-7,8-dihydro-1H,6H, 9H-7,8a-methanopyrrolo[1′,2′:3,4]imidazo [1,2-c]pyrimidin-1-one]: the IC50 was 13.9 nM.

Consider `O=c1nc(OCc2ccc(Oc3ccnc(C(F)F)c3)c(F)c2)cc2n1CC13CC(CN21)C3` [Example 162], for which the IC50 was 6.5 nM.

`O=c1nc(OCCc2ccc(Oc3ccc(Cl)c(C(F)(F)F)c3)c(F)c2)cc2n1C[C@]13CO[C@H](CN21)C3` [Example 185]: the IC50 stood at 4.7 nM.

As to `O=c1nc(OCc2cc(F)c(F)c(F)c2)cc2n1CC13CCC(CC1)N23` [Example 52, 3-((3,4,5-trifluorobenzyl)oxy)-7,8-dihydro-1H,6H,9H-6,8a-ethanopyrrolo[1′,2′:3,4] imidazo[1,2-c]pyrimidin-1-one], the IC50 amounted to 16 nM.

`O=c1nc(OCc2cc(F)c(F)c(F)c2)cc2n1C[C@@]13CO[C@@H](CN21)C3` [Example 35, (3R,11aS)-7-((3,4,5-trifluorobenzyl)oxy)-3,4-dihydro-1H,9H,11H-3,11a-methanopyrimido[6′,1′:2,3] imidazo[5,1-c][1,4]oxazin-9-one]: the IC50 is 38.8 nM.

Regarding `O=c1nc(OCc2ccc(Oc3ccnc(C(F)(F)F)c3)c(F)c2)cc2n1C[C@@]13C[C@@H](CN21)N(CC(F)(F)F)C3` [Example 173], the IC50 was 3.4 nM.

Consider `O=c1nc(OCCc2ccc(Oc3cccc(C(F)(F)F)c3)c(F)c2)cc2n1C[C@]13CO[C@H](CN21)C3` [Example 181, (3S,11aR)-7-(3-fluoro-4-(3-(trifluoromethyl)phenoxy)phenethoxy)-3,4-dihydro-1H,9H, 11H-3,11a-methanopyrimido[6′,1′:2,3]imidazo [5,1-c][1,4]oxazin-9-one], for which the half-maximal inhibitory concentration (IC50) turned out to be 6.7 nM.

For `O=c1nc(OCc2ccc(Oc3ccnc(C(F)(F)F)c3)c(F)c2)cc2n1CC13CCC(COC1)N23` (stereo not drawn) [Example 152, 7-((3-fluoro-4-((2-(trifluoromethyl)pyridin-4-yl)oxy)benzyl)oxy)-3,4-dihydro-1H,9H,11H-4,11a-ethanopyrimido[6′,1′:2,3] imidazo[5,1-c][1,4]oxazin-9-one], the IC50 amounted to 3.9 nM.

For `O=c1nc(OCCc2ccc(Oc3ccnc(C(F)(F)F)c3)cc2)cc2n1CC13CC(CN21)C3` [Example 111, 3-(4-((2-(trifluoromethyl)pyridin-4-yl)oxy)phenethoxy)-7,8-dihydro-1H,6H,9H-7,8a-methanopyrrolo[1′,2′:3,4] imidazo[1,2-c]pyrimidin-1-one], the IC50 was 11.4 nM.

Regarding `N#Cc1c(OCc2cc(F)c(Oc3ccnc(C(F)(F)F)c3)c(F)c2)nc(=O)n2c1N1C[C@@H]3C[C@]1(CO3)C2` [Example 102, (3S,11aR)-7-((3,5-difluoro-4-((2-(trifluoromethyl)pyridin-4-yl)oxy)benzyl)oxy)-6-cyano-3,4-dihydro-1H,9H,11H-3,11a-methanopyrimido[6′,1′:2,3] imidazo[5,1-c][1,4]oxazin-9-one], the IC50 was determined as 7.6 nM.

For the compound `O=c1nc(OCc2ccc(Oc3ccnc(C(F)(F)F)c3)c(F)c2)cc2n1CC13CC(C(F)F)(CN21)C3` [Example 139, 7-(difluoromethyl)-3-((3-fluoro-4-((2-(trifluoromethyl)pyridin-4-yl)oxy)benzyl)oxy)-7,8-dihydro-1H,6H,9H-7,8a-methanopyrrolo[1′,2′:3,4] imidazo[1,2-c]pyrimidin-1-one], the IC50 was 2.6 nM.

Turning to `O=c1nc(OCCc2ccc(F)c(F)c2)cc2n1C[C@]13CO[C@H](CN21)C3` [Example 195, (3S,11aR)-7-(3,4-difluorophenethoxy)-3,4-dihydro-1H,9H,11H-3,11a-methano-pyrimido[6′,1′:2,3]imidazo[5,1-c][l,4]oxazin-9-one], the IC50 was determined as 62.7 nM.

`Cn1ccc(CN2C(=O)[C@]34C[C@H]2CN3c2cc(OCc3ccc(Oc5ccnc(C(F)(F)F)c5)c(F)c3)nc(=O)n2C4)n1` [Example 197, (3S,11aR)-7-((3-fluoro-4-((2-(trifluoromethyl)pyridin-4-yl)oxy)benzyl)oxy)-2-((1-methyl-1H-pyrazol-3-yl)methyl)-3,4-dihydro-9H, 11H-3,11a-methanopyrazino[1′2′:3,4]imidazo [1,2-c]pyrimidin-1,9(2H)-dione]: the IC50 was 2.9 nM.

As to `CC12CCCN1c1cc(OCc3cc(F)c(Oc4cnc(C(F)(F)F)nc4)c(F)c3)nc(=O)n1C2` (stereo not drawn) [Example 56, 3-((3,5-difluoro-4-((2-(trifluoromethyl)pyrimidin-5-yl)oxy)benzyl)oxy)-8a-methyl-7,8,8a,9-tetrahydro-1H,6H-pyrrolo[1′,2′:3,4]imidazo [1,2-c]pyrimidin-1-one], the IC50 stood at 7.7 nM.

With `COc1c(OCCc2ccc(Oc3cccc(C(F)(F)F)c3)cc2)nc(=O)n2c1N1CC3CC1(C3)C2` [Example 184, 4-methoxy-3-(4-(3-(trifluoromethyl)phenoxy)phenethoxy)-7,8-dihydro-1H,6H,9H-7,8a-methanopyrrolo[1′,2′:3,4]imidazo[1,2-c] pyrimidin-1-one], the IC50 worked out at 23.8 nM.

As to `O=c1nc(OCc2ccc(Oc3cnc(C(F)(F)F)nc3)c(F)c2)cc2n1CC13CCC(CC1)N23` [Example 128, 3-((3-fluoro-4-((2-(trifluoromethyl)pyrimidin-5-yl)oxy)benzyl)oxy)-7,8-dihydro-1H,6H,9H-6,8a-ethanopyrrolo[1′,2′:3,4] imidazo[1,2-c]pyrimidin-1-one], the IC50 came out at 8.4 nM.

Consider `O=c1nc(OCc2cc(F)c(Oc3ccnc(C(F)(F)F)c3)c(F)c2)cc2n1CC13CCC(COC1)N23` (stereo not drawn) [Example 112, 7-((3,5-difluoro-4-((2-(trifluoromethyl)pyridin-4-yl)oxy)benzyl)oxy)-3,4-dihydro-1H,9H,11H-4,11a-ethanopyrimido[6′,1′:2,3] imidazo[5,1-c][1,4]oxazin-9-one], for which the IC50 turned out to be 5.1 nM.

With `O=c1nc(OCc2ccc(Oc3ccc(F)c(C(F)(F)F)c3)nc2)cc2n1C[C@@]13CO[C@@H](CN21)C3` [Example 32, (3R,11aS)-7-((6-(4-fluoro-3-(trifluoromethyl)phenoxy)pyridin-3-yl)methoxy)-3,4-dihydro-1H,9H,11H-3,11a-methanopyrimido[6′,1′:2,3] imidazo[5,1-c][1,4]oxazin-9-one], the IC50 came to 164 nM.

In the case of `COc1c(OCc2cc(F)c(Oc3ccnc(C(F)(F)F)c3)c(F)c2)nc(=O)n2c1N1C[C@@H]3C[C@]1(CO3)C2` [Example 106, (3S,11aR)-7-((3,5-difluoro-4-((2-(trifluoromethyl)pyridin-4-yl)oxy)benzyl)oxy)-6-methoxy-3,4-dihydro-1H,9H,11H-3,11a-methanopyrimido[6′,1′:2,3] imidazo[5,1-c][1,4]oxazin-9-one], the IC50 amounted to 1 nM.

As for `Cn1cc(Oc2c(F)cc(COc3cc4n(c(=O)n3)CC35CCC(CC3)N45)cc2F)cn1` [Example 48, 3-((3,5-difluoro-4-((1-methyl-1H-pyrazol-4-yl)oxy)benzyl)oxy)-7,8-dihydro-1H,6H,9H-6,8a-ethanopyrrolo[1′,2′:3,4] imidazo[1,2-c]pyrimidin-1-one], the IC50 was determined as 62.8 nM.

For `O=c1nc(OCc2cc(F)c(Oc3ccc(Cl)c(C(F)(F)F)c3)c(F)c2)cc2n1C[C@@]13CO[C@@H](CN21)C3` [Example 27, (3R,11aS)-7-((4-(4-chloro-3-(trifluoromethyl)phenoxy)-3,5-difluorobenzyl)oxy)-3,4-dihydro-1H,9H,11H-3,11a-methanopyrimido[6′,1′:2,3] imidazo[5,1-c][1,4]oxazin-9-one], the IC50 was found to be 2.5 nM.
